Measured values reported in US10683269B2 (MISSION THERAPEUTICS LIMITED, priority 2016, dated 2020).

Target: T1, USP7 (Homo sapiens, UniProt Q93009)
T1 construct: The USP7 construct was PCR amplified and cloned into a pFLAG-CMV-6a vector (Sigma-Aldrich) with an N-terminal FLAG tag; made in house; host or cells: HEK293T
Assay: USP7 biochemical IC50 assay (fluorescence polarisation, TAMRA labelled peptide linked to ubiquitin via an iso-peptide bond)
Conditions: 30 min pre-incubation of enzyme and compound, read after 2 hr incubation at room temperature, read-out: IC50 range
Method: In Vitro USP7 Inhibition Assay
Expression and Purification of USP7
The USP7 construct was PCR amplified and cloned into a pFLAG-CMV-6a vector (Sigma-Aldrich) with an N-terminal FLAG tag. HEK293T cells were transfected with FLAG-USP7 using TransIT-LT1 transfection reagent (Mirus) according to the manufacturer's instructions. Cells were harvested 40 hours after transfection. […] The resin was washed two times with low salt buffer plus protease inhibitors (complete mini, Roche) and phosphatase inhibitors (PhosSTOP mini, Roche) and one time with high salt buffer (20 mM Tris, pH 7.5, 500 mM NaCl, 0.5 mM EDTA, 5 mM beta-mercaptoethanol, protease inhibitors (complete mini, Roche) and phosphatase inhibitors (PhosSTOP mini, Roche). To elute the bound USP7, elution buffer (10 mM Tris, pH 7.5, 150 mM NaCl, 0.5 mM EDTA, 10% glycerol, 0.5% NP40, 5 mM beta-mercaptoethanol, 0.15 mg/ml 3×FLAG peptide (Sigma-Aldrich)) was added to the resin and incubated at 4° C. for 2.5 hours rotating. The resin was centrifuged at 4000 rpm for 30 seconds, and the supernatant containing purified FLAG-USP7 was removed and stored at −80° C.
USP7 Biochemical IC50 Assay
A typical 8-point dilution series would be 100, 30, 10, 3, 1, 0.3, 0.1, 0.03 μM final. […] Either 1 μl of 50% DMSO or diluted compound was added to the plate. USP7 was diluted in reaction buffer (20 mM Tris, pH 7.5, 100 mM NaCl, 0.05% Tween 20, 0.5 mg/ml BSA, 5 mM—beta mercaptoethanol) to the equivalent of 0.0025 μl/well and 10 μl of diluted USP7 was added to the compound. Enzyme and compound were incubated for 30 min at room temp. Reactions were initiated by the addition of 50 nM of TAMRA labelled peptide linked to ubiquitin via an iso-peptide bond as fluorescence polarisation substrate. Reactions were read immediately after addition of substrate and following a 2 hr incubation at room temperature. Readings were performed on a Pherastar Plus (BMG Labtech). λ Excitation 540 nm; λ Emission 590 nm.

T1 sequence (Q93009 whole entry): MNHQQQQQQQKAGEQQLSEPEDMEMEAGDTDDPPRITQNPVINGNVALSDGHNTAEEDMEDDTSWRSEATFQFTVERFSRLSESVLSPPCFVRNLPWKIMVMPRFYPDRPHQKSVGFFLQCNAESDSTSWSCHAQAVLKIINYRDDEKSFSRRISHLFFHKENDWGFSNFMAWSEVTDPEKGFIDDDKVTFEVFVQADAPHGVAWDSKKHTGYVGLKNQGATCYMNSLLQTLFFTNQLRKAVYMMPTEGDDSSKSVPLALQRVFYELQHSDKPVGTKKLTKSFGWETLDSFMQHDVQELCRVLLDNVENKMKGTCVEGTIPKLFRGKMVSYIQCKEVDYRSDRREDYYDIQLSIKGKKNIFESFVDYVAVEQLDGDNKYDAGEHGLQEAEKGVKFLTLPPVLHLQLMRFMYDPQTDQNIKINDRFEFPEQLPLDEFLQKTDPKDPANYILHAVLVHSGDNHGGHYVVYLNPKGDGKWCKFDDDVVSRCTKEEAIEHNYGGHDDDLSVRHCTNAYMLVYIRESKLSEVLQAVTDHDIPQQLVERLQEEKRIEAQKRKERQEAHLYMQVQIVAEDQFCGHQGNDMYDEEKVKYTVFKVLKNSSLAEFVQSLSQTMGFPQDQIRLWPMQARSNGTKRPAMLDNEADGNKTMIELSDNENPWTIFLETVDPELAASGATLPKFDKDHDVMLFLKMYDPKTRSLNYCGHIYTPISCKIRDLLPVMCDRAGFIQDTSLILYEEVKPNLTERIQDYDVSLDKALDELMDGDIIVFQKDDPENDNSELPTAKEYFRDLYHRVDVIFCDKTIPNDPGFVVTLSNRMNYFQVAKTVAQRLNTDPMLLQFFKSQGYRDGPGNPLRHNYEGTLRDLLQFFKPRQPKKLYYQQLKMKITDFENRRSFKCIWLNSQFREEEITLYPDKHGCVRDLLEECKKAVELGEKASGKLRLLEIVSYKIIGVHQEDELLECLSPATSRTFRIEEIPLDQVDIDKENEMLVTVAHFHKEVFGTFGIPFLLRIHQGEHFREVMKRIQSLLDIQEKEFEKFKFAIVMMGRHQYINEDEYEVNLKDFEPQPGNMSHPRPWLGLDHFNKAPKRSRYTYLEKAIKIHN

Row | Structure (SMILES) | IC50 [µM]
1 | CN1CCCC(C(=O)Nc2cc3c(c(-c4ccccc4)c2)CN(C#N)C3)C1 (racemic) [Example 36, N-(2-cyano-7-phenylisoindolin-5-yl)-1-methylpiperidine-3-carboxamide] | < 1
2 | CN1CCOC(CNc2nc3c(c(-c4ccccc4)n2)CN(C#N)C3)C1 (single isomer, unassigned) [Example 152, 2-(((4-methylmorpholin-2-yl)methyl)amino)-4-phenyl-5,7-dihydro-6H-pyrrolo[3,4-d]pyrimidine-6-carbonitrile] | 1 to 10
3 | CN1CCOC(CNc2nc3c(c(-c4ccccc4)n2)CN(C#N)C3)C1 (single isomer, unassigned) [Example 153, 2-(((4-methylmorpholin-2-yl)methyl)amino)-4-phenyl-5,7-dihydro-6H-pyrrolo[3,4-d]pyrimidine-6-carbonitrile] | < 1
4 | CC1c2cccc(-c3ccc(Cl)cc3C(N)=O)c2CN1C#N (single isomer, unassigned) [Example 258, 5-chloro-2-(2-cyano-1-methylisoindolin-4-yl)benzamide] | 10 to 30
5 | CC1c2cccc(-c3ccc(C#N)cc3C(N)=O)c2CN1C#N (single isomer, unassigned) [Example 259, 5-cyano-2-(2-cyano-1-methylisoindolin-4-yl)benzamide] | 1 to 10
6 | N#Cc1ccc(-c2cccc3c2CN(C#N)C3)c(C(N)=O)c1 [Example 1, 5-cyano-2-(2-cyanoisoindolin-4-yl)benzamide] | 1 to 10
7 | N#CN1Cc2cccc(-c3ccc(Cl)cc3C(N)=O)c2C1 [Example 2, 5-chloro-2-(2-cyanoisoindolin-4-yl)benzamide] | 1 to 10
8 | Cc1ccc(-c2cccc3c2CN(C#N)C3)c(C(N)=O)c1 [Example 3, 2-(2-cyanoisoindolin-4-yl)-5-methylbenzamide] | 1 to 10
9 | N#Cc1ccc(-c2cccc3c2CN(C#N)C3)c(C(=O)N2CCC2)c1 [Example 4, 4-(2-(azetidine-1-carbonyl)-4-cyanophenyl)isoindoline-2-carbonitrile] | 1 to 10
10 | Cn1cc(Nc2cc3c(c(-c4ccccc4)c2)CN(C#N)C3)cn1 [Example 5, 6-((1-methyl-1H-pyrazol-4-yl)amino)-4-phenylisoindoline-2-carbonitrile] | < 1
11 | N#CN1Cc2cccc(-c3ccccc3)c2C1 [Example 6, 4-phenylisoindoline-2-carbonitrile] | 1 to 10
12 | Cn1cc(-c2cccc3c2CN(C#N)C3)cn1 [Example 7, 4-(1-methyl-1H-pyrazol-4-yl)isoindoline-2-carbonitrile] | 1 to 10
13 | N#CN1Cc2cccc(-c3cnc4ccccc4c3)c2C1 [Example 8, 4-(quinolin-3-yl)isoindoline-2-carbonitrile] | 1 to 10
14 | N#CN1Cc2cccc(-c3cnc4[nH]ccc4c3)c2C1 [Example 9, 4-(1H-pyrrolo[2,3-b]pyridin-5-yl)isoindoline-2-carbonitrile] | 1 to 10
15 | CN1CC=C(c2cccc3c2CN(C#N)C3)CC1 [Example 10, 4-(1-methyl-1,2,3,6-tetrahydropyridin-4-yl)isoindoline-2-carbonitrile] | 1 to 10
16 | Cn1cc2cc(-c3cccc4c3CN(C#N)C4)ccc2n1 [Example 11, 4-(2-methyl-2H-indazol-5-yl)isoindoline-2-carbonitrile] | 1 to 10
17 | Cc1ccccc1-c1cccc2c1CN(C#N)C2 [Example 12, 4-(o-tolyl)isoindoline-2-carbonitrile] | 1 to 10
18 | N#Cc1ccc(-c2cccc3c2CN(C#N)C3)cc1 [Example 13, 4-(4-cyanophenyl)isoindoline-2-carbonitrile] | 1 to 10

Row | Structure (SMILES) | IC50 [µM]
19 | CN1CCC(c2cccc3c2CN(C#N)C3)CC1 [Example 14, 4-(1-methylpiperidin-4-yl)isoindoline-2-carbonitrile] | 30 to 100
20 | N#CN1Cc2nccc(-c3cccc(C(=O)NCc4ccccc4)c3)c2C1 [Example 15, N-benzyl-3-(6-cyano-6,7-dihydro-5H-pyrrolo[3,4-b]pyridin-4-yl)benzamide] | 10 to 30
21 | N#CN1Cc2nccc(-c3ccc(Cl)cc3)c2C1 [Example 16, 4-(4-chlorophenyl)-5,7-dihydro-6H-pyrrolo[3,4-b]pyridine-6-carbonitrile] | 1 to 10
22 | COc1ccc(-c2ccnc3c2CN(C#N)C3)cc1 [Example 17, 4-(4-methoxyphenyl)-5,7-dihydro-6H-pyrrolo[3,4-b]pyridine-6-carbonitrile] | 1 to 10
23 | N#CN1Cc2nccc(-c3cccc(Cl)c3)c2C1 [Example 18, 4-(3-chlorophenyl)-5,7-dihydro-6H-pyrrolo[3,4-b]pyridine-6-carbonitrile] | 1 to 10
24 | N#CN1Cc2ccnc(-c3ccccc3)c2C1 [Example 19, 4-phenyl-1,3-dihydro-2H-pyrrolo[3,4-c]pyridine-2-carbonitrile] | 1 to 10
25 | Cc1nc(-c2cc3c(c(-c4ccccc4)c2)CN(C#N)C3)no1 [Example 20, 6-(5-methyl-1,2,4-oxadiazol-3-yl)-4-phenylisoindoline-2-carbonitrile] | 1 to 10
26 | N#CN1Cc2cccc(Nc3ncc4ccccc4n3)c2C1 [Example 21, 4-(quinazolin-2-ylamino)isoindoline-2-carbonitrile] | 1 to 10
27 | CNC(=O)c1ccc2cnc(Nc3cccc4c3CN(C#N)C4)cc2c1 [Example 22] | 1 to 10
28 | N#CN1Cc2cc(NC(=O)c3cccnc3)cc(-c3ccccc3)c2C1 [Example 23, N-(2-cyano-7-phenylisoindolin-5-yl)nicotinamide] | 30 to 100
29 | CC(=O)Nc1cc2c(c(-c3ccccc3C(N)=O)c1)CN(C#N)C2 [Example 24, 2-(6-acetamido-2-cyanoisoindolin-4-yl)benzamide] | 1 to 10
30 | CN1CCC[C@@H](C(=O)Nc2cc3c(c(-c4cccc(F)c4)c2)CN(C#N)C3)C1 [Example 25, (R)-N-(2-cyano-7-(3-fluorophenyl)isoindolin-5-yl)-1-methylpiperidine-3-carboxamide] | < 1
31 | CN1CCC[C@@H](C(=O)Nc2cc3c(c(-c4ccc(C#N)cc4)c2)CN(C#N)C3)C1 [Example 26, (R)-N-(2-cyano-7-(4-cyanophenyl)isoindolin-5-yl)-1-methylpiperidine-3-carboxamide] | < 1
32 | CN1CCC[C@@H](C(=O)Nc2cc3c(c(-c4cccc(C#N)c4)c2)CN(C#N)C3)C1 [Example 27, (R)-N-(2-cyano-7-(3-cyanophenyl)isoindolin-5-yl)-1-methylpiperidine-3-carboxamide] | < 1
33 | CN1CCC[C@@H](C(=O)Nc2cc3c(c(-c4ccc(F)cc4)c2)CN(C#N)C3)C1 [Example 28, (R)-N-(2-cyano-7-(4-fluorophenyl)isoindolin-5-yl)-1-methylpiperidine-3-carboxamide] | < 1
34 | CNC(=O)c1ccc(-c2cc(NC(=O)[C@@H]3CCCN(C)C3)cc3c2CN(C#N)C3)cc1 [Example 29, (R)-N-(2-cyano-7-(4-(methylcarbamoyl)phenyl)isoindolin-5-yl)-1-methylpiperidine-3-carboxamide] | < 1
35 | CNC(=O)c1cccc(-c2cc(NC(=O)[C@@H]3CCCN(C)C3)cc3c2CN(C#N)C3)c1 [Example 30] | 1 to 10
36 | COc1cccc(-c2cc(NC(=O)[C@@H]3CCCN(C)C3)cc3c2CN(C#N)C3)c1 [Example 31, (R)-N-(2-cyano-7-(3-methoxyphenyl)isoindolin-5-yl)-1-methylpiperidine-3-carboxamide] | 1 to 10
